Patent publication US20250250642A1, “APOE GENOTYPING IN CANCER PROGNOSTICS AND TREATMENT” (The Rockefeller University, priority 2019, published 2025)

Columns and labels:
YUMM1.7 tumors = assay: Growth of YUMM1.7 tumors in human APOE knock-in mice under LXR-agonistic treatment; assay type: in vivo, mouse; conditions: RGX-104 in chow, approximate target dose 100 mg/kg body weight, from day 3 post injection
Experimental: To assess the impact of APOE genotype on the growth of syngeneic melanoma, 1×10^5 YUMM1.7 cells were subcutaneously injected into the flank of 6-10-weeks-old, sex-matched human APOE targeted replacement mice. Cells were injected in a total volume of 100 μL, and YUMM1.7 cells were mixed 1:1 with growth factor reduced Matrigel (356231, Corning) before injection. Tumor size was measured on the indicated days using digital calipers, and tumor volume was calculated as (small diameter)^2×(large diameter)×Π/6. In experiments employing YUMMER1.7 cells, 5×10^5 cells resuspended in PBS were injected subcutaneously into the flank. For LXR-agonistic treatment, mice were administered chow supplemented with the synthetic LXR-agonist RGX-104 (Rgenix (Tavazoie, M., et al. (2018) Cell, 172 (4), 825-840)) at 628.5 mg/kg chow (Research Diets, approximate target dose of 100 mg/kg body weight) starting on day 3 post injection. For anti-PD1 treatment, mice were injected intraperitoneally with 250 μg and 125 μg of anti-PD-1 antibody (BioXCell, clone RMP1-14) on days 6 and 9 post tumor cell injection, respectively. Control mice received PBS injections on the same days. For survival analysis in the YUMMER1.7 model, mice were euthanized when the tumor volume exceeded 1000 mm^3. Therapy responses were considered complete (CR, complete response) when tumor volumes fell below 16 mm^3 (lowest limit of detection).

solid cancers = assay: RGX-104 in patients with solid cancers, radiographic tumor response by ApoE genotype; assay type: in vivo, human; conditions: monotherapy or combination with docetaxel, nivolumab or ipilimumab
Experimental: RGX-104 was administered to patients with solid cancers as a monotherapy or in combination with either docetaxel, nivolumab, or ipilimumab. Fifty-one patients were evaluable for both radiographic assessment of tumor response and ApoE genotype. Below is a table showing the number of patients with each genotype and the number of clinical responses (Partial Responses) to the therapy.

[1] = ApoE genotype E2/E3 (10 patients)
[2] = ApoE genotype E2/E4 (3 patients)
[3] = ApoE genotype E3/E3 (30 patients)
[4] = ApoE genotype E3/E4 (8 patients)

## C[C@H](CCOc1cccc(CC(=O)O)c1)N(Cc1cccc(C(F)(F)F)c1Cl)CC(c1ccccc1)c1ccccc1 [RGX-104, 2-[3-[(3R)-3-[[2-chloro-3-(trifluoromethyl)phenyl]methyl-(2,2-diphenylethyl)amino]butoxy]phenyl]acetic acid]
YUMM1.7 tumors; APOE2 mice
  efficacy of LXR agonism (tumor growth): completely abrogated
YUMM1.7 tumors; APOE4 mice
  efficacy of LXR agonism (tumor growth): robust anti-tumor effects
Solid cancers; [1]
  Number of Partial Responses: 0
  Percent of patients with a Partial Response: 0%
Solid cancers; [2]
  Number of Partial Responses: 1
  Percent of patients with a Partial Response: 33.3%
Solid cancers; [3]
  Number of Partial Responses: 1
  Percent of patients with a Partial Response: 3.3%
Solid cancers; [4]
  Number of Partial Responses: 1
  Percent of patients with a Partial Response: 12.5%
